# Data published in paper PMC2712759, “Hsp70 Chaperones and Type I PRMTs Are Sequestered at Intranuclear Inclusions Caused by Polyalanine Expansions in PABPN1” (PLoS ONE, 2009).
# Assays:
# PABPN1 [1] = target: T1, PABPN1 (Homo sapiens, UniProt Q86U42, INS11AAAAAAA); assay: ANS fluorescence titration; type: binding
# T1 construct: recombinant full-length (306 aa for normal PABPN1, 10-Ala tract, N-terminus M-(A)10-GAAGGRG); details in supplement S1
# T1 sequence (Q86U42 with tags, fused parts or gaps INS11AAAAAAA): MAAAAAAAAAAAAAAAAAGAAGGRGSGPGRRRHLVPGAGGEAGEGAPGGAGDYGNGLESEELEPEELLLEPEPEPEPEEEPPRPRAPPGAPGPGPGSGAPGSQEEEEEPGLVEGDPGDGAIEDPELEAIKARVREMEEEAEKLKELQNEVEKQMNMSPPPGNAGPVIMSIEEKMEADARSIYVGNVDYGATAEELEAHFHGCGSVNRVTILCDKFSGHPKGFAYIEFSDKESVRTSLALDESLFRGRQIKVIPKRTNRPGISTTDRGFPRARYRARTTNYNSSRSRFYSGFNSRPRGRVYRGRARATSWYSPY
# PABPN1 [2] = target: T2, PABPN1 (Homo sapiens, UniProt Q86U42); assay: ANS fluorescence titration; type: binding
# T2 construct: recombinant full-length (306 aa for normal PABPN1, 10-Ala tract, N-terminus M-(A)10-GAAGGRG); details in supplement S1
# T2 sequence (Q86U42 1-306): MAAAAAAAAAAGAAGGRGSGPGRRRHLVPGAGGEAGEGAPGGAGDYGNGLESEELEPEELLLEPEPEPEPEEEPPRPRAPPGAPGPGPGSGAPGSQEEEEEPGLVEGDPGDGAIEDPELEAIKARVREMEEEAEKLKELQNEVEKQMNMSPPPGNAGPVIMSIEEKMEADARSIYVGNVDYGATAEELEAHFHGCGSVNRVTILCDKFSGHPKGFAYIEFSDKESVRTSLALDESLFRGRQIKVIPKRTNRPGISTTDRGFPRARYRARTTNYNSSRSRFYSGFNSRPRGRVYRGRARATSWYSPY
structure (smiles),measurement,setting,value
O=S(=O)(O)c1cccc2cccc(Nc3ccccc3)c12 [1-Anilino naphthalene-8-sulfonic acid],Kd,PABPN1 [1],42 µM
same,Kd,PABPN1 [2],75 µM
